Assay results: patent US11912693B2, “Compounds for modulating S1P1 activity and methods of using the same” (TREVENA, INC., priority 2017, dated 2024)

Assays:
[1] = system: peripheral blood lymphocytes; assay: Peripheral blood lymphocytes (lymphopenia) in c57bl/6 mice, acute and chronic studies; format: in vivo; conditions: peripheral blood lymphocytes vs vehicle; 6 mg/kg sc, 7 days
How it was run: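 Mice dosed subcutaneously: acute, single 3 mg/kg (n=5/group), blood taken at set time points; chronic, seven days in dose response (up to 3 mg/kg) or screening at 6 mg/kg (n=6-8/group), blood taken 45 min after final dose. Lymphocyte counts (10^3 cells/μl) by haematology analyser, compared with vehicle.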

[2] = target: T1, human sphingosine-1-phosphate receptor 1 (S1P1) (Homo sapiens (Human), UniProt P21453); assay: Inhibition of cAMP production (HTRF cAMP HiRange), S1P1 CHO-K1 cells; format: cell-based
How it was run: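 CHO-K1 cells stably co-expressing human S1P1 (C-terminal Prolink tag) and EA-β-arrestin2 were grown in AssayComplete Media 6 at 37° C. and 5% CO2, plated, and incubated overnight. Agonist-driven inhibition of intracellular cAMP was read by TR-FRET with the HTRF cAMP HiRange kit on a PheraStar reader. Potency is pEC50, and efficacy (SPAN) is normalized to fingolimod.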
Target sequence in this assay (P21453 whole entry, looked up): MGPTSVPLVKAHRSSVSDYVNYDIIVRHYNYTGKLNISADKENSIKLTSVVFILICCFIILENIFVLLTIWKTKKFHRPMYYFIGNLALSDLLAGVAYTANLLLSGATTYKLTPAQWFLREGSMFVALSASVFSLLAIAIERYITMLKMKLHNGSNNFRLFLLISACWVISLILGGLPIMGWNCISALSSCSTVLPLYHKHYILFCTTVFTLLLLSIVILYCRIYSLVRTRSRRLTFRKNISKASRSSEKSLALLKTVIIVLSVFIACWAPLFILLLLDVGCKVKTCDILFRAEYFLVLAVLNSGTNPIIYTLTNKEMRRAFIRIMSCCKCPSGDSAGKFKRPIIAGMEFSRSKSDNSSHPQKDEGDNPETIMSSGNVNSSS

[3] = system: oxaliplatin induced peripheral neuropathy; assay: Reversal of allodynia induced by oxaliplatin in mice (von Frey frequency method); format: in vivo, c57bl/6 mice; conditions: tested 30 min after dosing
Description: Compounds were tested for efficacy in mouse models of chemotherapy induced peripheral neuropathy. […] For these studies […]/6 mice are habituated to the test environment and baseline measurements of pain sensitivity are assessed. To determine mechanical responses, the threshold for responses to punctate mechanical stimuli (mechanical hyperalgesia) was tested according to the frequency method. In brief, the plantar surface of the animal hindpaw was stimulated with a single von Frey monofilament (0.4 g) for approximately 1-2 seconds. If there was a withdrawal response, it was recorded as a positive response. A response was defined as a lifting or shaking of the paw upon stimulation. This was repeated ten times for each mouse. The final measurement for each mouse is the % non-response to stimulation for the ten trials. The % non-response to stimulation is converted to a % MPE. For paclitaxel induced peripheral neuropathy, a series of injections of PAC (6 mg/kg, i.p.) on days 1, 3, 5 and 7 is used to induce peripheral neuropathy. After approximately 14 days from the initiation of PAC injections, animals are re-assessed for mechanical sensitivity. […] On test day animals are dosed with compounds either subcutaneously or orally and tested for mechanical response by the frequency method either 30 min (s.c.) or 60 min (p.o.) after drug administration. Data is presented as a % MPE. For oxaliplatin induced peripheral neuropathy, a series of injections of OXA (4 mg/kg, i.p.) on days 1-5 is used to induce peripheral neuropathy. After approximately 14 days from the initiation of PAC injections, animals are re-assessed for mechanical sensitivity. […] On test day animals are dosed with compounds subcutaneously and tested for mechanical response by the frequency method 30 min after drug administration. Data is presented as a % MPE. One or more of the compounds show reversal of chemotherapeutic induced peripheral neuropathy.

[4] = system: Freund's Complete Adjuvant induced inflammation / mechanical allodynia; assay: Tactile allodynia produced by intraplantar Freund's Complete Adjuvant in rats (Randall-Selitto); format: in vivo, rat; conditions: CFA model, 24 hours after CFA
Description: Animals were acclimated to the vivarium for at least 48 hr prior to behavioral testing. Inflammation was induced with the administration of an intraplantar (subcutaneous injection into the plantar surface of the hind paw, i.pl.) injection of 0.10 ml Freund's Complete Adjuvant (FCA). The experiments were conducted 24 hours after CFA administration. Rats are tested for mechanical allodynia in a Randall-Selitto apparatus. The inflamed paw is put on a pedestal and a pointed force of increasing intensity (0 to 250 grams) is applied to the paw. When the animal struggles to withdraw from the force the test is stopped and the force to induce that struggle is recorded. Data is presented as mean grams of force to withdrawal or a percentage of the maximum possible effect.

[5] = target: T1, human sphingosine-1-phosphate receptor 1 (S1P1); assay: β-Arrestin2 recruitment assay (PathHunter), S1P1 CHO-K1 cells; format: cell-based
How it was run: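 Enzyme-fragment complementation read-out: agonist-driven β-arrestin2 binding to ProLink-tagged human S1P1 in stable CHO-K1 cells restores β-galactosidase, measured 1 h at room temperature after a 60 min 37° C. compound incubation. Potency as pEC50, efficacy relative to fingolimod (SPAN).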
Target sequence in this assay (P21453 whole entry, looked up): as above
Target sequence in this assay (P32121 whole entry partner, looked up): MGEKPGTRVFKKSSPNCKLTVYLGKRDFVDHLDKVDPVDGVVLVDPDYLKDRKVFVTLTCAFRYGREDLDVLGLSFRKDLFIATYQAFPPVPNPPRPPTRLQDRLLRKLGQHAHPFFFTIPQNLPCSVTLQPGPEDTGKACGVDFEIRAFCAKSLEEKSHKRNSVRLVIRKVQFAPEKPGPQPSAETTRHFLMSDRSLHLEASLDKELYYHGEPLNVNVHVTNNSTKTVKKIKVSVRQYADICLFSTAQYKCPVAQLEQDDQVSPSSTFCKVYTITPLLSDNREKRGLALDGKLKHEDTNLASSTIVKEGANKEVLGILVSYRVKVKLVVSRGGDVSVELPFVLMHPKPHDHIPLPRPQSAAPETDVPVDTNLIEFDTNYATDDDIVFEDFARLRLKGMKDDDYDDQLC

[6] = system: paclitaxel induced peripheral neuropathy; assay: Reversal of allodynia induced by paclitaxel in mice (s.c. or p.o., von Frey frequency method); format: in vivo, c57bl/6 mice; conditions: Mus musculus
How it was run: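 Neuropathy was induced in mice by paclitaxel (6 mg/kg i.p., days 1, 3, 5, 7) or oxaliplatin (4 mg/kg i.p., days 1-5), with re-testing about 14 days later. Compounds were given s.c. (tested at 30 min) or p.o. (tested at 60 min; paclitaxel only). A 0.4 g von Frey filament was applied ten times per paw, and % non-response was converted to % MPE.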

Lymphopenia: Effect and Doses, mg/kg, sc [1]: no change: 6 mg/kg, 7 days
Emax ([2]; CHO-K1, efficacy (SPAN) normalized to fingolimod, read-out: hS1P1 cAMP SPAN): > 75%
hS1P1 cAMP pEC50 ([2]; inhibition of cAMP production, S1P1 CHO-K1 cells): >6.5
Emax ([5]; CHO-K1, efficacy (SPAN) normalized to fingolimod, read-out: hS1P1 B-arrestin2 SPAN): > 75%
hS1P1 B-arrestin2 pEC50 ([5]; β-arrestin2 recruitment, S1P1 CHO-K1 cells): >5
SMILES: Cc1cnccc1-c1nc(-c2ccc3c(ccn3C(C)C)c2)no1 [Compound 142, 3-(1-isopropyl-1H-indol-5-yl)-5-(3-methylpyridin-4-yl)-1,2,4-oxadiazole]
Screen @ 3 mg/kg sc (% MPE) [3]: >50 % MPE
Active Doses, mg/kg sc (>50% MPE) [4]: ≥0.1 mg/kg
inhibition in vivo at 3 mg/kg ([6]; po, 1 h, 3 mg/kg p.o., tested 60 min after dosing, read-out: Screen @ 3 mg/kg po (% MPE)): > 50%
inhibition in vivo at 1 mg/kg ([6]; sc, 0.5 h, 1 mg/kg s.c., tested 30 min after dosing, read-out: Screen @ 1 mg/kg sc (% MPE)): > 50%
